# Assay results reported in US11254667B2 (priority 2016, dated 2022).
# Like-named read-outs stand apart in the source and are kept apart here.
# Key:
# BLK = BLK (Homo sapiens (Human), UniProt P51451); experiment: biochemical; conditions: 10 μM ATP
# MA9-NRas cells = experiment: NRAS IC50 (MA9-NRas cells); type: cell-based; conditions: Homo sapiens, read-out: NRAS IC50
# FLT3 (D835Y) = FLT3 (D835Y) (Homo sapiens (Human), UniProt P36888, D835Y); experiment: biochemical
# FLT3 phosphorylation = experiment: Immunoblot of P-FLT3 in MV4;11 cells; type: cell-based, human; conditions: 50 nM, 24 hours
# Phospho (P)-STAT5 = experiment: P-STAT5 AlphaLISA assay in MV4;11 cells; type: cell-based; conditions: Homo sapiens, read-out: IC50 of STAT5 phosphorylation
# IRAK4 = IRAK4 (Homo sapiens (Human), UniProt Q9NWZ3); experiment: biochemical
# [1] = target: Receptor-type tyrosine-protein kinase FLT3 (Homo sapiens, UniProt P36888, ITD); experiment: biochemical
# PDGFRβ = PDGFRβ (Homo sapiens (Human), UniProt P09619); experiment: biochemical; conditions: 10 μM ATP
# Chain of PDGFRβ (P09619 33-1106 limits assumed): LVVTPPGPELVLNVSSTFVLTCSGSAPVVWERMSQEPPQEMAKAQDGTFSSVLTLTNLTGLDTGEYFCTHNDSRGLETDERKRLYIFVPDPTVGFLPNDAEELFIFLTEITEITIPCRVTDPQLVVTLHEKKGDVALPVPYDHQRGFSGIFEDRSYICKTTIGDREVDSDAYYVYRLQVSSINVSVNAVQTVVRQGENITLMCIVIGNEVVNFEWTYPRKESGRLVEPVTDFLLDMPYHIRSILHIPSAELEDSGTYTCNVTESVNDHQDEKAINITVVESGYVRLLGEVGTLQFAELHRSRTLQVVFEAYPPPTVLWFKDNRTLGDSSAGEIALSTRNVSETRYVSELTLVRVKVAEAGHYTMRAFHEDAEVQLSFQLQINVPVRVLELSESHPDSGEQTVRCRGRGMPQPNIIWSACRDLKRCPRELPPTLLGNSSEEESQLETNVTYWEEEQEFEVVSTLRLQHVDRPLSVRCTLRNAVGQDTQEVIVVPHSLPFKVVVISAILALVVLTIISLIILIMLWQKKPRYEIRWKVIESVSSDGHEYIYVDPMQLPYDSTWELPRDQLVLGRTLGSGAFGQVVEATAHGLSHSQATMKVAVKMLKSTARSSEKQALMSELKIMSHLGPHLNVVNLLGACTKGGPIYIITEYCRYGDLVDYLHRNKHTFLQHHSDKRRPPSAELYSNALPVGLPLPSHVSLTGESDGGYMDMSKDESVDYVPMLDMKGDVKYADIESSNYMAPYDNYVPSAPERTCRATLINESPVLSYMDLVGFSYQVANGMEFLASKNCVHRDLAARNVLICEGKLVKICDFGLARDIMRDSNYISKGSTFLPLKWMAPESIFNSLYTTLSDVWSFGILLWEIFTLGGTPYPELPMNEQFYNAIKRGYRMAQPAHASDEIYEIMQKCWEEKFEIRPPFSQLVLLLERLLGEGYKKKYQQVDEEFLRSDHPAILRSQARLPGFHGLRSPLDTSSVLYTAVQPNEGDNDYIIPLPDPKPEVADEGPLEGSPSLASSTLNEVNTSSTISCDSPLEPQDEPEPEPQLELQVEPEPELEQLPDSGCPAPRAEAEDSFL
# P-IRAK4 = experiment: Immunoblot of compensatory P-IRAK4 in FLT3-ITD AML cells; type: cell-based, human; conditions: 50 nM
# IRAK1 [2] = target: T1, IRAK1 (Homo sapiens (Human), UniProt P51617); experiment: biochemical
# CDK7/cyclin H = CDK7/cyclin H (Homo sapiens (Human), UniProt P50613); experiment: biochemical
# SRPK1 = SRPK1 (Homo sapiens (Human), UniProt Q96SB4); experiment: biochemical
# RET = RET (Homo sapiens (Human), UniProt P07949); experiment: biochemical; conditions: 10 μM ATP
# Chain of RET (P07949 29-1114 limits assumed): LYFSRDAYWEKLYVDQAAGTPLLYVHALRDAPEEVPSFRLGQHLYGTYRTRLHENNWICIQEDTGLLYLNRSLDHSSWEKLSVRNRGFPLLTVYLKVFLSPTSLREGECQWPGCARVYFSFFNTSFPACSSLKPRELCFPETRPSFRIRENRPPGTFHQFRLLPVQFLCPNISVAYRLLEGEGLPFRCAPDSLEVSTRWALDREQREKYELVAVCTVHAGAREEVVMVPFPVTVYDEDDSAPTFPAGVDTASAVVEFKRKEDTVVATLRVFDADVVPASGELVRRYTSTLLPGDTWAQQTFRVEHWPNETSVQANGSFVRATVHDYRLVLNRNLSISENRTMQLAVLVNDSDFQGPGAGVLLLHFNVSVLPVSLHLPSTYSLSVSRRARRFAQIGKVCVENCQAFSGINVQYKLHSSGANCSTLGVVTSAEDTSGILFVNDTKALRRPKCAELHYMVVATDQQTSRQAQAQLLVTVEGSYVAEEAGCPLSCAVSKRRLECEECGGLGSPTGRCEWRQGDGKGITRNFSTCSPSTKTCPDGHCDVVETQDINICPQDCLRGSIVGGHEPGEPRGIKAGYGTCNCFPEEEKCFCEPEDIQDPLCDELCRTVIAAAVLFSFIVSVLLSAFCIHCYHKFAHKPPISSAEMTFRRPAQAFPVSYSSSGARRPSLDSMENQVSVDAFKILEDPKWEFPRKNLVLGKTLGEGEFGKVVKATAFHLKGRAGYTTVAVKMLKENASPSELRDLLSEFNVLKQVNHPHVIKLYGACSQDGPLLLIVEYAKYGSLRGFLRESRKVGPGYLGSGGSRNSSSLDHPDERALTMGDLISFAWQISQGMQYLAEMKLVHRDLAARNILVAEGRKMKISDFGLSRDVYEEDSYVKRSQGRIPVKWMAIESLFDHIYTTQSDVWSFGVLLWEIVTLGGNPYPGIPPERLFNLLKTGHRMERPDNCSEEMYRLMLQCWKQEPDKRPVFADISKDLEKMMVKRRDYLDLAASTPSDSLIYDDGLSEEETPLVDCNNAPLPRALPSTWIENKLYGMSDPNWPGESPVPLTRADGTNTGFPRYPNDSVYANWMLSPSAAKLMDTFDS
# LCK = LCK (Homo sapiens (Human), UniProt P06239); experiment: biochemical; conditions: 10-dose IC50 mode, 10 μM ATP
# physchem = conditions: pH 7.4, aqueous buffer, kinetic from dmso stock
# FLT3 = FLT3 (Homo sapiens (Human), UniProt P36888); experiment: biochemical
# in vivo = conditions: NRG/NRGS, mouse, ip, 30 mg/kg
# IRAK1 [3] = target: T1, IRAK1; experiment: Kd kinase binding assay IRAK1
# [4] = PAMPA
# [5] = pH 7.4
# [6] = NRG/NRGS, mouse, in vivo, ip, 30 mg/kg
# MDSL cells = experiment: CellTiter-Glo growth of MDSL cells; type: cell-based, human; conditions: 72 hours, cell-titer glow
# IRAK4 phosphorylation = experiment: Immunoblot of P-IRAK4 in MDSL cells; type: cell-based, human; conditions: 24 hours
# [7] = system: normal cord blood CD34+ cells; experiment: Colony formation of normal cord blood CD34+ cells; conditions: 1 μM, 10 days
# [8] = MV4;11 cells, 5 hours, AlphaLISA
structure (smiles),measurement,setting,value
"COc1cc2ncc(-c3cccc(NC4CCNC4)n3)n2cc1-c1cn[nH]c1 (stereo not drawn) [Compound I-20, 6-(7-methoxy-6-(1H-pyrazol-4-yl)imidazo[1,2-a]pyridin-3-yl)-N-(pyrrolidin-3-yl)pyridin-2-amine]",Stability,rat,11.6 min
same,IC50,"BLK; IC50 BLK, 10-dose IC50 mode",< 0.508 nM
same,IC50,MA9-NRas cells,33200 nM
same,IC50,FLT3 (D835Y),< 0.508 nM
same,FLT3 phosphorylation (immunoblot),FLT3 phosphorylation,inhibited FLT3 phosphorylation comparably to AC220
same,IC50,"Phospho (P)-STAT5; MV4-11, 5 h",3.6 nM
same,IC50,IRAK4,< 0.508 nM
same,IC50,[1],< 0.508 nM
same,IC50,"PDGFRβ; IC50 PDGFRb, 10-dose IC50 mode",1.25 nM
same,compensatory phosphorylation of IRAK4 (immunoblot),P-IRAK4,did not result in compensatory phosphorylation of IRAK4
same,IC50,"IRAK1 [2]; IC50 IRAK1, 10-dose IC50 mode, 10 μM ATP",5.34 nM
same,IC50,CDK7/cyclin H,116 nM
same,IC50,SRPK1,> 10000 nM
same,IC50,"RET; IC50 RET, 10-dose IC50 mode",< 0.508 nM
same,IC50,LCK,< 0.508 nM
same,solubility,physchem,4.5 µg/mL
same,IC50,FLT3,< 0.508 nM
"Clc1ccc2ncc(-c3cccc(NC4CNC4)n3)n2c1 [Compound I-15, N-(azetidin-3-yl)-6-(6-chloroimidazo[1,2-a]pyridin-3-yl)pyridin-2-amine]",Stability,,13 min
same,IC50,MA9-NRas cells,16600 nM
same,IC50,Phospho (P)-STAT5; [8],1.7 nM
same,solubility,physchem,> 44 µg/mL
"Clc1ccc2ncc(-c3cccc(NC4CCNCC4)n3)n2c1 [Compound I-2, 6-(6-chloroimidazo[1,2-a]pyridin-3-yl)-N-(piperidin-4-yl)pyridin-2-amine]",Stability,rat,>30.0 min
same,IC50,"PDGFRβ; IC50 PDGFRb, 10-dose IC50 mode",3.57 nM
same,IC50,PDGFRβ; IC50 PDGFRβ,4.19 nM
same,AUC(0-inf),in vivo,4630 ng·h/mL
same,Cmax,in vivo,1710 ng/mL
same,Tmax,in vivo,30 min
same,half-life,in vivo,198 min
same,IC50,SRPK1,> 10000 nM
same,IC50,RET; IC50 RET,0.6 nM
same,IC50,"RET; IC50 RET, 10-dose IC50 mode",1280 nM
same,solubility,physchem,> 48 µg/mL
same,solubility kinetic,physchem,> 48 µM
"Clc1ccc2ncc(-c3cccc(NC4CCCNC4)n3)n2c1 (stereo not drawn) [Compound I-17, 6-(6-chloroimidazo[1,2-a]pyridin-3-yl)-N-(piperidin-3-yl)pyridin-2-amine]",Kd,IRAK1 [3],150 nM
same,Stability,rat,>30.0 min
same,IC50,"BLK; IC50 BLK, 10-dose IC50 mode",40.7 nM
same,IC50,"PDGFRβ; IC50 PDGFRb, 10-dose IC50 mode",67 nM
same,IC50,IRAK1 [2]; read-out: IC50 IRAK1,1480 nM
same,IC50,CDK7/cyclin H,588 nM
same,IC50,SRPK1,7670 nM
same,IC50,"RET; IC50 RET, 10-dose IC50 mode",10.5 nM
same,IC50,LCK,167 nM
same,solubility,physchem,> 48 µg/mL
"CC(C)(C)c1cc(NC(=O)Nc2ccc(-c3cn4c(n3)sc3cc(OCCN5CCOCC5)ccc34)cc2)no1 [quizartinib, reference compound]",IC50,"Phospho (P)-STAT5; MV4-11, 5 h",11.7 nM
"CC1(COc2ccc3c(c2)ncn3-c2ccc3cccc(N4CCC(N)CC4)c3n2)COC1 [Crenolinib, reference compound]",IC50,"BLK; 10-dose IC50 mode, read-out: IC50 BLK",20.7 nM
same,IC50,"SRPK1; 10-dose IC50 mode, 10 μM ATP, read-out: IC50 SRPK1",21700 nM
same,IC50,"RET; 10-dose IC50 mode, read-out: IC50 RET",13.8 nM
c1cc(N[C@@H]2CCNC2)nc(-c2cnc3ccc(-c4cn[nH]c4)cn23)c1 [Compound I-43],Stability,,5.7 min
same,IC50,Phospho (P)-STAT5; [8],6.6 nM
same,solubility,physchem,40.1 µg/mL
"Fc1cc(F)c(-c2cnc3ccc(Cl)cn23)nc1NC1CNC1 [Compound I-56, N-(azetidin-3-yl)-6-(6-chloroimidazo[1,2-a]pyridin-3-yl)-3,5-difluoropyridin-2-amine]",Permeability,[4],1164.1 ×10⁻⁶ cm/s
same,solubility,[5],>50.0 µg/mL
"COc1cc2ncc(-c3cccc(NC4CCNC4)n3)n2cc1-c1cnn(C)c1 (stereo not drawn) [Compound I-24, 6-(7-methoxy-6-(1-methyl-1H-pyrazol-4-yl)imidazo[1,2-a]pyridin-3-yl)-N-(pyrrolidin-3-yl)pyridin-2-amine]",Kd,IRAK1 [3],2.9 nM
same,FLT3 phosphorylation (immunoblot),FLT3 phosphorylation,inhibited FLT3 phosphorylation comparably to AC220
same,AUCinf.,[6],"6,800 hr*ng/mL"
same,MDSL growth inhibition compared to IRAK-Inh,MDSL cells,increased ability to inhibit MDSL growth
same,IRAK4 phosphorylation (immunoblot),IRAK4 phosphorylation,effectively inhibited pIRAK4
same,AUC(0-inf),in vivo,6800 ng·h/mL
same,Cmax,in vivo,3570 ng/mL
same,Tmax,in vivo,4.98 min
same,colony formation of normal CD34+ cells,[7],inhibited colony formation
